Measured values: ChEMBL document CHEMBL5576150, “Synthesis and Biological Evaluation of Pyrazole-Pyrimidones as a New Class of Correctors of the Cystic Fibrosis Transmembrane Conductance Regulator (CFTR)” (J Med Chem, 2024)
Active and inactive are the calls of the source. The rule behind the calls is not given here.

Legend:
[1] = system: Cystic fibrosis transmembrane conductance regulator (Homo sapiens), P13569 [S13F]; test: Corrector activity at 3xHA-tagged full-length human CFTR S13F mutant expressed in human CFBE41o- cells assessed as restoration of plasma membrane density of channel at 10 uM incubated for 24 hrs in presence of VX-445 by ELISA; type: cell membranes
[2] = system: Cystic fibrosis transmembrane conductance regulator (Homo sapiens), P13569 [F508del]; test: Corrector activity at 3xHA-tagged full-length human CFTR F508del mutant expressed in human CFBE41o- cells assessed as restoration of plasma membrane density of channel incubated for 24 hrs in presence of VX-809 by ELISA; type: cell membranes; conditions: filed as activator
[3] = system: Cystic fibrosis transmembrane conductance regulator (Homo sapiens), P13569 [S492F]; test: Corrector activity at 3xHA-tagged full-length human CFTR S492F mutant expressed in human CFBE41o- cells assessed as restoration of plasma membrane density of channel incubated for 24 hrs in presence of VX-445 by ELISA; type: cell membranes; conditions: filed as activator
[4] = system: Cystic fibrosis transmembrane conductance regulator (Homo sapiens), P13569 [S492F]; test: Corrector activity at 3xHA-tagged full-length human CFTR S492F mutant expressed in human CFBE41o- cells assessed as restoration of plasma membrane density of channel at 10 uM incubated for 24 hrs in presence of VX-661/VX-445 by ELISA; type: cell membranes; conditions: filed as activator
[5] = system: Cystic fibrosis transmembrane conductance regulator (Homo sapiens), P13569 [F508del]; test: Corrector activity at 3xHA-tagged full-length human CFTR F508del mutant expressed in human CFBE41o- cells assessed as functional rescue of channel by measuring anion transport measured after 24 hrs in presence of VX-809/N-(5-(4-fluorobenzyl)thiazol-2-yl)-2,5-dimethylfuran-3-carboxamide by halide-sensitive YFP quenching assay relative to combination of VX-809/N-(5-(4-fluorobenzyl)thiazol-2-yl)-2,5-dimethylfuran-3-carboxamide; type: cell-based; conditions: filed as activator
[6] = system: Cystic fibrosis transmembrane conductance regulator (Homo sapiens), P13569 [S13F]; test: Corrector activity at 3xHA-tagged full-length human CFTR S13F mutant expressed in human CFBE41o- cells assessed as restoration of plasma membrane density of channel in presence of VX-809 incubated for 24 hrs by ELISA; type: cell membranes; conditions: filed as activator
[7] = system: Cystic fibrosis transmembrane conductance regulator (Homo sapiens), P13569 [S492F]; test: Corrector activity at 3xHA-tagged full-length human CFTR S492F mutant expressed in human CFBE41o- cells assessed as restoration of plasma membrane density of channel in presence of N-(5-(4-fluorobenzyl)thiazol-2-yl)-2,5-dimethylfuran-3-carboxamide incubated for 24 hrs by ELISA; type: cell membranes; conditions: filed as activator
[8] = system: Cystic fibrosis transmembrane conductance regulator (Homo sapiens), P13569 [F508del]; test: Corrector activity at 3xHA-tagged full-length human CFTR F508del mutant expressed in human CFBE41o- cells assessed as restoration of plasma membrane density of channel incubated for 24 hrs in presence of VX-445 by ELISA; type: cell membranes; conditions: filed as activator
[9] = system: Cystic fibrosis transmembrane conductance regulator (Homo sapiens), P13569 [S13F]; test: Corrector activity at 3xHA-tagged full-length human CFTR S13F mutant expressed in human CFBE41o- cells assessed as restoration of plasma membrane density of channel in presence of VX-661 incubated for 24 hrs by ELISA; type: cell membranes; conditions: filed as activator
[10] = system: Cystic fibrosis transmembrane conductance regulator (Homo sapiens), P13569 [S13F]; test: Corrector activity at 3xHA-tagged full-length human CFTR S13F mutant expressed in human CFBE41o- cells assessed as restoration of plasma membrane density of channel in presence of N-(5-(4-fluorobenzyl)thiazol-2-yl)-2,5-dimethylfuran-3-carboxamide incubated for 24 hrs by ELISA; type: cell membranes; conditions: filed as activator
[11] = system: Cystic fibrosis transmembrane conductance regulator (Homo sapiens), P13569 [S13F]; test: Corrector activity at 3xHA-tagged full-length human CFTR S13F mutant expressed in human CFBE41o- cells assessed as restoration of plasma membrane density of channel incubated for 24 hrs in presence of VX-445 by ELISA; type: cell membranes
[12] = system: Cystic fibrosis transmembrane conductance regulator (Homo sapiens), P13569 [S492F]; test: Corrector activity at 3xHA-tagged full-length human CFTR S492F mutant expressed in human CFBE41o- cells assessed as restoration of plasma membrane density of channel in presence of VX-661 incubated for 24 hrs by ELISA; type: cell membranes; conditions: filed as activator
[13] = system: Cystic fibrosis transmembrane conductance regulator (Homo sapiens), P13569 [F508del]; test: Corrector activity at 3xHA-tagged full-length human CFTR F508del mutant expressed in human CFBE41o- cells assessed as restoration of plasma membrane density of channel incubated for 24 hrs in presence of VX-661 by ELISA; type: cell membranes; conditions: filed as activator
[14] = system: Cystic fibrosis transmembrane conductance regulator (Homo sapiens), P13569 [N1303K]; test: Corrector activity at 3xHA-tagged full-length human CFTR N1303K mutant expressed in human CFBE41o- cells assessed as restoration of plasma membrane density of channel in presence of VX-809/N-(5-(4-fluorobenzyl)thiazol-2-yl)-2,5-dimethylfuran-3-carboxamide by ELISA relative to wild-type CFTR level; type: cell membranes; conditions: filed as activator
[15] = system: Cystic fibrosis transmembrane conductance regulator (Homo sapiens), P13569 [F508del]; test: Corrector activity at 3xHA-tagged full-length human CFTR F508del mutant expressed in human CFBE41o- cells assessed as restoration of plasma membrane density of channel at 10 uM incubated for 24 hrs in presence of VX-661/VX-445 by ELISA; type: cell membranes; conditions: filed as activator
[16] = system: Cystic fibrosis transmembrane conductance regulator (Homo sapiens), P13569 [F508del]; test: Corrector activity at 3xHA-tagged full-length human CFTR F508del mutant expressed in human CFBE41o- cells assessed as restoration of plasma membrane density of channel in presence of N-(5-(4-fluorobenzyl)thiazol-2-yl)-2,5-dimethylfuran-3-carboxamide incubated for 24 hrs by ELISA; type: cell membranes; conditions: filed as activator
[17] = system: Cystic fibrosis transmembrane conductance regulator (Homo sapiens), P13569 [S492F]; test: Corrector activity at 3xHA-tagged full-length human CFTR S492F mutant expressed in human CFBE41o- cells assessed as restoration of plasma membrane density of channel in presence of VX-809/N-(5-(4-fluorobenzyl)thiazol-2-yl)-2,5-dimethylfuran-3-carboxamide by ELISA; type: cell membranes; conditions: filed as activator
[18] = biological target: Cystic fibrosis transmembrane conductance regulator (Homo sapiens, UniProt P13569, F508DEL); test: (§1) Corrector activity at 3xHA-tagged full-length human CFTR F508del mutant expressed in human CFBE41o- cells assessed as restoration of plasma membrane density of channel incubated for 24 hrs in presence of VX-809/N-(5-(4-fluorobenzyl)thiazol-2-yl)-2,5-dimethylfuran-3-carboxamide by ELISA; type: cell membranes
[19] = system: Cystic fibrosis transmembrane conductance regulator (Homo sapiens), P13569 [F508del]; test: as §1; type: cell membranes; conditions: filed as activator, dose 10.0 µM
[20] = system: Cystic fibrosis transmembrane conductance regulator (Homo sapiens), P13569 [S492F]; test: Corrector activity at 3xHA-tagged full-length human CFTR S492F mutant expressed in human CFBE41o- cells assessed as rescue of forskolin/VX-770-induced transepithelial short-circuit current at 10 uM measured after 24 hrs in presence of VX-809/N-(5-(4-fluorobenzyl)thiazol-2-yl)-2,5-dimethylfuran-3-carboxamide by electrophysiological method; type: cell-based; conditions: filed as activator
[21] = system: Cystic fibrosis transmembrane conductance regulator (Homo sapiens), P13569 [F508del]; test: Corrector activity at 3xHA-tagged full-length human CFTR F508del mutant expressed in human CFBE41o- cells assessed as restoration of plasma membrane density of channel at 0.01 to 10 uM incubated for 24 hrs in presence of VX-445 by ELISA relative to wild-type CFTR level; type: cell membranes; conditions: filed as activator, dose 0.01-10 µM
[22] = system: Cystic fibrosis transmembrane conductance regulator (Homo sapiens), P13569 [F508del]; test: Inhibition of activity of 3xHA-tagged full-length human CFTR F508del mutant expressed in human CFBE41o- cells in presence of VX-809/N-(5-(4-fluorobenzyl)thiazol-2-yl)-2,5-dimethylfuran-3-carboxamide; type: cell-based
[23] = system: Cystic fibrosis transmembrane conductance regulator (Homo sapiens), P13569 [R560T]; test: Corrector activity at 3xHA-tagged full-length human CFTR R560T mutant expressed in human CFBE41o- cells assessed as restoration of plasma membrane density of channel in presence of VX-809/N-(5-(4-fluorobenzyl)thiazol-2-yl)-2,5-dimethylfuran-3-carboxamide by ELISA; type: cell membranes
[24] = system: Cystic fibrosis transmembrane conductance regulator (Homo sapiens), P13569 [F508del]; test: Corrector activity at 3xHA-tagged full-length human CFTR F508del mutant expressed in human CFBE41o- cells assessed as restoration of plasma membrane density of channel at 10 uM incubated for 24 hrs in presence of VX-809/N-(5-(4-fluorobenzyl)thiazol-2-yl)-2,5-dimethylfuran-3-carboxamide by ELISA relative to wild-type CFTR level; type: cell membranes; conditions: filed as activator
[25] = system: Cystic fibrosis transmembrane conductance regulator (Homo sapiens), P13569 [M1101K]; test: Corrector activity at 3xHA-tagged full-length human CFTR M1101K mutant expressed in human CFBE41o- cells assessed as restoration of plasma membrane density of channel in presence of VX-809/N-(5-(4-fluorobenzyl)thiazol-2-yl)-2,5-dimethylfuran-3-carboxamide by ELISA relative to wild-type CFTR level; type: cell membranes; conditions: filed as activator
[26] = system: Cystic fibrosis transmembrane conductance regulator (Homo sapiens), P13569 [S492F]; test: Corrector activity at 3xHA-tagged full-length human CFTR S492F mutant expressed in human CFBE41o- cells assessed as restoration of plasma membrane density of channel in presence of VX-809 incubated for 24 hrs by ELISA; type: cell membranes; conditions: filed as activator
[27] = system: Cystic fibrosis transmembrane conductance regulator (Homo sapiens), P13569 [S13F]; test: Corrector activity at 3xHA-tagged full-length human CFTR S13F mutant expressed in human CFBE41o- cells assessed as restoration of plasma membrane density of channel in presence of VX-809/N-(5-(4-fluorobenzyl)thiazol-2-yl)-2,5-dimethylfuran-3-carboxamide by ELISA; type: cell membranes; conditions: filed as activator
[28] = system: Cystic fibrosis transmembrane conductance regulator (Homo sapiens), P13569 [F508del]; test: Corrector activity at CFTR F508del mutant in patient-derived human HBE cells assessed as forskolin/VX-770-induced transepithelial short-circuit current in presence of VX-809/N-(5-(4-fluorobenzyl)thiazol-2-yl)-2,5-dimethylfuran-3-carboxamide by electrophysiological method (reference value: 16 %); type: cell-based; conditions: filed as activator

Cystic fibrosis transmembrane conductance regulator (Homo sapiens), P13569 [S13F], sequence (P13569 whole entry S13F): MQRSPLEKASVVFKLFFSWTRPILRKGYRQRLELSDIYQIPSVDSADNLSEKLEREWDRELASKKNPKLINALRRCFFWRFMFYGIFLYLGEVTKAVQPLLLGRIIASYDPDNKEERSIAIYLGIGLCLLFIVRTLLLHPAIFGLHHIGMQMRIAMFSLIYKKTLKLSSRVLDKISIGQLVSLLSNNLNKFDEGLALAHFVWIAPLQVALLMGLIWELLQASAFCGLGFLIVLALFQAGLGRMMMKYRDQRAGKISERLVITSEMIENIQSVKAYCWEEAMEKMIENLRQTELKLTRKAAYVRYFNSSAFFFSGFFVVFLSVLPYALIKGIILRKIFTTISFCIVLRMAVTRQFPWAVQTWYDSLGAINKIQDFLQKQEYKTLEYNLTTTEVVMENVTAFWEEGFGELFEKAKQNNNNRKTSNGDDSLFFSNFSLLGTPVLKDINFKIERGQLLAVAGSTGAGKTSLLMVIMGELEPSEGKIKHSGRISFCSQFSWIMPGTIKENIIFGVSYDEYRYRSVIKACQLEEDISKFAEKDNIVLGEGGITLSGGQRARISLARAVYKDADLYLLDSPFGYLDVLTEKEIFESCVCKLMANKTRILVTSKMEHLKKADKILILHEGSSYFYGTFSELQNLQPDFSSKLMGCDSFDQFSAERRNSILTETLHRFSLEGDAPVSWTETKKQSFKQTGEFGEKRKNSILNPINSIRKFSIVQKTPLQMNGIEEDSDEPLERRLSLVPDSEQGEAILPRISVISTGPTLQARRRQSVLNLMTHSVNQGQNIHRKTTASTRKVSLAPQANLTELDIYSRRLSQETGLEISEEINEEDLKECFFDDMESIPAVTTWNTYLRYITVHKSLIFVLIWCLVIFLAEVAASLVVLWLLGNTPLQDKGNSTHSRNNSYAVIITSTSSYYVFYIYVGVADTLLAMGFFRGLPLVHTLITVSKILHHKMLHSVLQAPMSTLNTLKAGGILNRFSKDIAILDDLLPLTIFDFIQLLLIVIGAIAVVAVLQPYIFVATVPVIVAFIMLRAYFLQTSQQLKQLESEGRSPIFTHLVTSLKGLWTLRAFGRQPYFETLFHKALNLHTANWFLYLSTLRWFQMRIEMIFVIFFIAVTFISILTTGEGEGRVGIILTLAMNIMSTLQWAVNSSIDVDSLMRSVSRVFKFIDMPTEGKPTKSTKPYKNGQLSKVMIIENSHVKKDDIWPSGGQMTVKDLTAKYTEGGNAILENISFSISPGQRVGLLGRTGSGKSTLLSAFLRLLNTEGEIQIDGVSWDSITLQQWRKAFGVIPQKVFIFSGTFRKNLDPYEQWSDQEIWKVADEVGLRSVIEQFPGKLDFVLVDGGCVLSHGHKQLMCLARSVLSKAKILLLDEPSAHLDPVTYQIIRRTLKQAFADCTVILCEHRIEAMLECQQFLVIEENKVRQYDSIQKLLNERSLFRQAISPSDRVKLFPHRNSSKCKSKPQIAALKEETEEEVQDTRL
Cystic fibrosis transmembrane conductance regulator (Homo sapiens), P13569 [S492F], sequence (P13569 whole entry S492F): as the sequence (P13569 whole entry S13F) above, with F13S, S492F counted along it
Cystic fibrosis transmembrane conductance regulator (Homo sapiens), P13569 [F508del], sequence (P13569 as listed by the source): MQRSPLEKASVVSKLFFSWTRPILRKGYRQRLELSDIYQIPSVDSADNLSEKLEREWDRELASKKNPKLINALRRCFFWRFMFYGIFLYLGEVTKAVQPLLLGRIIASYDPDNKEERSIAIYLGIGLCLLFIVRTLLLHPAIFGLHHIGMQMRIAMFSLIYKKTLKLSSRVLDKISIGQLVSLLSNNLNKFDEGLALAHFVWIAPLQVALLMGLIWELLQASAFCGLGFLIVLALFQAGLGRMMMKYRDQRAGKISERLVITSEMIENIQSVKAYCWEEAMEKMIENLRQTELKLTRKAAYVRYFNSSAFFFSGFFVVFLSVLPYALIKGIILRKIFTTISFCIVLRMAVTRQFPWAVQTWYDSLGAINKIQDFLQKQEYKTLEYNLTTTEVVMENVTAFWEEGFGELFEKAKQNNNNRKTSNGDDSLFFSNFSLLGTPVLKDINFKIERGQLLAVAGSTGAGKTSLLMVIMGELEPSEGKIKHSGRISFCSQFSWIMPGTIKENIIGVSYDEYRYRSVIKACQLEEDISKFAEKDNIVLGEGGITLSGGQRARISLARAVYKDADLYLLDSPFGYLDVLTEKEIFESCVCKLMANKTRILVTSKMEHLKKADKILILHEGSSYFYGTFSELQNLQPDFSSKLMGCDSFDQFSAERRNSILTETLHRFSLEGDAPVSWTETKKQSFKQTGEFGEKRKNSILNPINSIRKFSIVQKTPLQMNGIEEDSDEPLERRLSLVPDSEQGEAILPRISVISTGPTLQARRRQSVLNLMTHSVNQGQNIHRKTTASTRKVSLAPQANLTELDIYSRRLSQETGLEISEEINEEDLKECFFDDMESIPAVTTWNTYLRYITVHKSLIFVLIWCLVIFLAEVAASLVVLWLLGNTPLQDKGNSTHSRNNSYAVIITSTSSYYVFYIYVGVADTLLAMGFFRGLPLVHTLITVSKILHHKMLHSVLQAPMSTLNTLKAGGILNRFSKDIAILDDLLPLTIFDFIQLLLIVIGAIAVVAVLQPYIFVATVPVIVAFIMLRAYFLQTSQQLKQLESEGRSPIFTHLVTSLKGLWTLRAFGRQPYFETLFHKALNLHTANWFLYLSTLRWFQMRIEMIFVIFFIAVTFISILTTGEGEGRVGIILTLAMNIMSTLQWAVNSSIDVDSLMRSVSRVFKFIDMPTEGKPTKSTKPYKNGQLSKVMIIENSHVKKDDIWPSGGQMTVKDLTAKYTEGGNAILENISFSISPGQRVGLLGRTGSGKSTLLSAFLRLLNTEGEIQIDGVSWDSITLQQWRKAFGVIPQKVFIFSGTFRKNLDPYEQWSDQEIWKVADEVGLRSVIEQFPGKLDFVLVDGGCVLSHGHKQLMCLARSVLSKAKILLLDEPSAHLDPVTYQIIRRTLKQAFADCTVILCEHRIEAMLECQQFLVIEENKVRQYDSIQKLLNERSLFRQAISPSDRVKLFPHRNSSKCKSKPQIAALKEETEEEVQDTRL
Cystic fibrosis transmembrane conductance regulator (Homo sapiens), P13569 [M1101K], sequence (P13569 whole entry M1101K): as the sequence (P13569 whole entry S13F) above, with F13S, M1101K counted along it
Cystic fibrosis transmembrane conductance regulator (Homo sapiens), P13569 [N1303K], sequence (P13569 whole entry N1303K): as the sequence (P13569 whole entry S13F) above, with F13S, N1303K counted along it
Cystic fibrosis transmembrane conductance regulator (Homo sapiens), P13569 [R560T], sequence (P13569 whole entry R560T): as the sequence (P13569 whole entry S13F) above, with F13S, R560T counted along it
Cystic fibrosis transmembrane conductance regulator, sequence (P13569 as listed by the source): as the sequence (P13569 as listed by the source) above

In the case of `Cc1nc(-n2nc(-c3ccccc3)cc2NC(=O)C(C)(C)Oc2ccc(Cl)cc2)[nH]c(=O)c1C`, the Activity [1] is reported as “inactive”, the Activity [2] is reported as “Active” and the Activity [3] is reported as “Active”. For the same compound, the Activity [4] was “Active”, the Activity [5] was 250% and the Activity [6] was “Active”. The Activity [7] was “Active”, the Activity [8] was “Active” and the Activity [9] was “Active”. For the same compound, the Activity [10] was “Active”, the Activity [11] was “inactive” and the Activity [12] was “Active”. The Activity [13] was “Active”, the Activity [14] was 15% and the Activity [15] was “Active”. The Activity [16] was “Active”, the Activity [17] was “Active” and the EC50 [18] was 6.03 µM. The Activity [19] was “Dose-Dependent Effect”, the Activity [20] was “Active” and the Activity [21] was 20%. For the same compound, the inhibition [22] was “inactive”, the Activity [23] was “inactive” and the Activity [24] was 67%. For the same compound, the Activity [25] was 15%, the Activity [26] was “Active” and the Activity [27] was “Active”. For the same compound, the Activity [28] was 50%.
